From ChEMBL document CHEMBL5579833, “The U.S. FDA approved cardiovascular drugs from 2011 to 2023: A medicinal chemistry perspective” (Eur J Med Chem, 2024)
Counter-ions that a name gives are not always drawn.

How the values were obtained:
[1] = Activation of Myosin S1 ATPase activity in bovine Cardio-myofibril
[2] = Elimination half life in cynomologus monkey; conditions: cynomolgus monkey, in vivo
[3] = Plasma protein binding in cynomolgus monkey
[4] = molecular target: T1, Type-2 angiotensin II receptor (Homo sapiens, UniProt P50052); experiment: Inhibition of Angiotensin-2 receptor (unknown origin)
T1 sequence (P50052 whole entry): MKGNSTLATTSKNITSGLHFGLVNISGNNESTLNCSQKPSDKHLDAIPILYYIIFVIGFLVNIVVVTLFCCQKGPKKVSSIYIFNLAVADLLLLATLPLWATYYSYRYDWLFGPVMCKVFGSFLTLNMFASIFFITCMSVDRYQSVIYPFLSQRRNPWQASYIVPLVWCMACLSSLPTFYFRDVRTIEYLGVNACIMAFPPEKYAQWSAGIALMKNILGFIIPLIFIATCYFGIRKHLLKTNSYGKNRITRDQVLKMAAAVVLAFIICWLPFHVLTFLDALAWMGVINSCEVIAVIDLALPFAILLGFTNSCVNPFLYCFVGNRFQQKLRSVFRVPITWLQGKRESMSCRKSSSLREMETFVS

[5] = Inhibition of ApoB lipoprotein secretion in human HepG2 cells; type: functional; conditions: read-out: ED50 (the source's name)
Rattus norvegicus = organism: Rattus norvegicus; experiment: Antithrombotic activity in fibrin-rich platelet-poor rat thrombin
P2Y purinoceptor 12 = P2Y purinoceptor 12 (Homo sapiens, UniProt Q9H244); experiment: Binding affinity to human P2Y12 assessed as inhibition constant
Chain of P2Y purinoceptor 12 (Q9H244 whole entry): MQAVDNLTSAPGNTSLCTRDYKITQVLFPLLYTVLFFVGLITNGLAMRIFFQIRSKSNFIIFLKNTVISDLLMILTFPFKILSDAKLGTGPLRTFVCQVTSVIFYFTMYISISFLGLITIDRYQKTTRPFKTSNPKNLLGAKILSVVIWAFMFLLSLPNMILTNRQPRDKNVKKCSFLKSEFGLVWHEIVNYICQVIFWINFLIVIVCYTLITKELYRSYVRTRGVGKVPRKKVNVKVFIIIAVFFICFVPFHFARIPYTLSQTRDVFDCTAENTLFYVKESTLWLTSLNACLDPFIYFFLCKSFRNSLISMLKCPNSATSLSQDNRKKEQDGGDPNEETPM

Platelet = experiment: Inhibition of thrombin-induced human platelet aggregation

CC(C)n1c(=O)cc(N[C@@H](C)c2ccccc2)[nH]c1=O
IC50 [1]: 300 nM

CCCCC(=O)N(Cc1ccc(-c2ccccc2-c2nnn[nH]2)cc1)[C@H](C(=O)O)C(C)C.CCOC(=O)[C@H](C)C[C@@H](Cc1ccc(-c2ccccc2)cc1)NC(=O)CCC(=O)O
half-life [2]: 4.6 h
fraction unbound [3]: 0.06

CCOc1nc2cccc(C(=O)OCc3oc(=O)oc3C)c2n1Cc1ccc(-c2ccccc2-c2noc(=O)[nH]2)cc1 [AZILSARTAN MEDOXOMIL]
IC50 [4]: 2.6 nM

O=C(NC1CCN(CCCCC2(C(=O)NCC(F)(F)F)c3ccccc3-c3ccccc32)CC1)c1ccccc1-c1ccc(C(F)(F)F)cc1 [LOMITAPIDE MESYLATE]
EC50 [5]: 0.8 nM

O=C(NC[C@H]1CN(c2ccc(N3CCOCC3=O)cc2)C(=O)O1)c1ccc(Cl)s1 [RIVAROXABAN]
ED50 (Rattus norvegicus): 0.1 mg/kg

CCCSc1nc(N[C@@H]2C[C@H]2c2ccc(F)c(F)c2)c2nnn([C@@H]3C[C@H](OCCO)[C@@H](O)[C@H]3O)c2n1 [TICAGRELOR]
Ki (P2Y purinoceptor 12): 4.3 nM

CCOC(=O)N[C@@H]1CC[C@@H]2[C@@H](C1)C[C@H]1C(=O)O[C@H](C)[C@H]1[C@H]2/C=C/c1ccc(-c2cccc(F)c2)cn1 [VORAPAXAR]
IC50 (Platelet): 47 nM
